One data set has as its target E2F1. The settings on record: ASO.
A further data set concerns the target AKT3. The settings on record: ASO.

These antisense oligonucleotides have a phosphorothioate backbone; sugars and methylation of C are not fully specified.
Note: test concentration or dose not given here.

Sequence GAGGCCTCGATAAATAAATA displayed a remaining target (mRNA or protein) (fraction of control) with E2F1 of 0.94.

For the sequence GAGTCGGCCGCCACCAGCGG, the remaining target (mRNA or protein) (fraction of control) with E2F1 was determined as 0.27. In the data set with E2F1, GATTCTGGGAGCAGGCACTG had a remaining target (mRNA or protein) (fraction of control) of 0.79. Still for that read-out and setting: the value for GCAGGCGCTTCAGACACTGC was 0.3. With GCCACTGGATGTGGTTCTTG, the remaining target (mRNA or protein) (fraction of control) in the data set with E2F1 was 0.94. The sequence GCCAGGCGCTGGCTGTCAGT displayed a remaining target (mRNA or protein) (fraction of control) with E2F1 of 0.69. The same measure, in the same setting: the value for GCCCACTGCTCTCGGCCAGG was 0.4; that for GCCGACGCCCACTGTGGTGT was 0.45; that for GCCTTGTGGGACCCCACGAG was 0.83. On the same count and under the same terms, the value for GCGGCCCGGGTGACAGGCGG was 0.32. On the same count and under the same terms, the value for GCTCCAGGCTGAGTAGAGAC was 0.73. Turning to GGACTCATGCACACACATGT, the remaining target (mRNA or protein) (fraction of control) with E2F1 is 0.16. Same read-out and setting: the value for GGACTTCTTGGCAATGAGCT was 0.65; that for GGAGGACGGCCAGGGACAGG was 0.7. For the sequence GGCCATGACGCTCACGGCCC, in the data set with E2F1, the remaining target (mRNA or protein) (fraction of control) was 0.76.

In turn, GGCCGAAAGTGCAGTTAGAG displayed a remaining target (mRNA or protein) (fraction of control) with E2F1 of no less than 1.

GGCCGCGGCGCACTGGGTGT yielded a remaining target (mRNA or protein) (fraction of control) with E2F1 of 0.79. Same read-out and setting: the value for GGCTGCCCATCCGGGACAAC was 0.53. Same read-out and setting: the same measure for GGCTTGCTCAGCCTCCTAGC: 0.17.

With GGGAGATGATGGTGGTGGTG, the remaining target (mRNA or protein) (fraction of control) in the data set with E2F1 is no less than 1. The same measure, in the same setting: the value for GGGCCGGTGGGAGCCGGCGG was 0.37. Still for that read-out and setting: the same measure for GGTATAAATTAAATGTTTCC: 0.62; for GGTCCAGCCTCCGCTTCACC: 0.36.

In the data set with E2F1, GGTCCCTCCAAGCCCTGTCA displayed a remaining target (mRNA or protein) (fraction of control) of 0.2.

For the sequence GGTCCTGGGTCAACCCCTCA, the remaining target (mRNA or protein) (fraction of control) with E2F1 was 0.62. For the sequence GTGACACTATGGTGGCAGAG, the remaining target (mRNA or protein) (fraction of control) in the data set with E2F1 was determined as 0.75. The sequence GTGGTCAGATTCAGTGAGGT returned a remaining target (mRNA or protein) (fraction of control) in the data set with E2F1 of 0.43. Same read-out and setting: the same measure for GTGTGGGTGTAGGCTGCATG: 0.76; for TACTCTGGAAACCCTGGTCC: 0.75. The same measure, in the same setting: the value for TAGCCAGACCCCAGAGCTAG was 0.46. Still for that read-out and setting: the same measure for TATTAAAACCAAAGCAGGAG: 0.69; for TCAGCCGAGTGGCTCAGCAG: 0.91; for TCCTGCAGCTGTCGGAGGTC: 0.8.

In the data set with E2F1, TCTGCGAGGAGTCGAGCAGC returned a remaining target (mRNA or protein) (fraction of control) of 0.79. In the case of TCTTCCTCTCCTATATTA, in the data set with AKT3, the remaining target (mRNA or protein) (fraction of control) is no less than 1. Consider TCTTCTTGCCTCTGCAGT, for which the remaining target (mRNA or protein) (fraction of control) in the data set with AKT3 is no less than 1.

For TGAAAGTTCTCCGAAGAGTC, in the data set with E2F1, the remaining target (mRNA or protein) (fraction of control) was determined as 0.56. Still for that read-out and setting: the same measure for TGCACACACAGAGGTGTATG: 0.27; for TGGAGAGGGCCCACCCCACC: 0.62; for TGGCAGAGTCAGTGGCCCTG: 0.94. On to TGTAGAAAGGTAACCTCC, for which the remaining target (mRNA or protein) (fraction of control) with AKT3 came out at 0.82. The same measure, in the same setting: the value for TGTCCATTCTTCCCTTTC was no less than 1; that for TGTCTCATAATTTCTTTT was no less than 1. On to TGTTAGGAAGCAAATCAAAG, for which the remaining target (mRNA or protein) (fraction of control) with E2F1 was determined as 0.74.

TGTTCGAGGAAATTTAAT had a remaining target (mRNA or protein) (fraction of control) in the data set with AKT3 of no less than 1. Same read-out and setting: the value for TGTTCTCTCTATAACAGT was 0.94; that for TTCCATTAATATTAATTC was no less than 1; that for TTCCCTTTCCTCTGGAGT was 0.65. In turn, TTGCTGATTCCCCAGGCTCA gave a remaining target (mRNA or protein) (fraction of control) with E2F1 of 0.36. TTGGACTACAATTCATTC had a remaining target (mRNA or protein) (fraction of control) with AKT3 of 0.72. Still for that read-out and setting: the same measure for TTGGCTTTGGTCGTTCTG: no less than 1; for TTGGTCGTTCTGTTTTCA: no less than 1. In the data set with E2F1, TTTAACGTCATCAAAATATT displayed a remaining target (mRNA or protein) (fraction of control) of 0.93. Take TTTCCTCTGGAGTATCTA: the remaining target (mRNA or protein) (fraction of control) with AKT3 is no less than 1. Consider TTTGATCACCATAACCATCT, for which the remaining target (mRNA or protein) (fraction of control) in the data set with E2F1 stood at 0.08.

Consider TTTGCATCTGAAGAGAGT, for which the remaining target (mRNA or protein) (fraction of control) in the data set with AKT3 was 0.77.

In the data set with AKT3, TTTGCCACTGAAAAGTTG gave a remaining target (mRNA or protein) (fraction of control) of no less than 1.

With TTTGTGAAGTTGGACTAC, the remaining target (mRNA or protein) (fraction of control) in the data set with AKT3 is no less than 1.

The values above are taken from the OligoGym collection.
